Laboratory results as given in patent US12433868B2 (priority 2010, dated 2025).
pEC50: −log10 of the molar value.

How the values were obtained:
Zaire 79 strain of MPX = tested on: Zaire 79 strain of MPX; set-up: species or system cynomolgus monkeys (Macaca fascicularis); settings: cynomolgus monkey, in vivo
Pichinde virus = assay type: cell-based
[1] = both, human, in vivo, po, 400 mg
Vaccinia virus (NYCBH) = test: microbe, parasite or virus in culture; assay type: cell-based; settings: Orthopoxvirus vaccinia, Vero
clinical = settings: both, human, in vivo, po, 400 mg
[2] = tested on: respiratory syncytial virus; assay type: cell-based
cytomegalovirus = assay type: cell-based
[3] = tested on: Rift Valley fever virus (strain MP12); assay type: cell-based
camelpox = settings: read-out: 50% effective concentration [EC50], inhibition of virus replication; cited from earlier work
ECTV, VV, or CV = settings: mouse, in vivo; cited from earlier work
ectromelia virus (ECTV) = settings: read-out: 50% effective concentration [EC50], inhibition of virus replication; cited from earlier work
variola viruses = settings: read-out: 50% effective concentration [EC50], inhibition of virus replication, in vitro; cited from earlier work
cowpox virus (CV) = settings: read-out: 50% effective concentration [EC50], inhibition of virus replication, in vitro; cited from earlier work
VV = settings: orally twice a day at 15 or 50 mg/kg of body weight for 5 days; intravenous VV; cited from earlier work
monkeypox = settings: read-out: 50% effective concentration [EC50], inhibition of virus replication, in vitro; cited from earlier work
vaccinia virus (VV) = settings: read-out: 50% effective concentration [EC50], inhibition of virus replication, in vitro; cited from earlier work

O=C(NN1C(=O)C2C3C=CC(C4CC34)C2C1=O)c1ccc(C(F)(F)F)cc1 (single isomer, unassigned) [Form I, 4-trifluoromethyl-N-(3,3a,4,4a,5,5a,6,6a-octahydro-1,3-dioxo-4,6-ethenocycloprop[f]isoindol-2(1H)-yl)-benzamide]
amount of viral DNA compared to vehicle-treated animals (Zaire 79 strain of MPX): significantly decrease | reduction in the level of virus replication compared to vehicle-treated group (Zaire 79 strain of MPX): more than 1,000 fold | survival (Zaire 79 strain of MPX): survive | inhibition of replication of unrelated virus (Pichinde virus): do not inhibit | AUC0-τ, Mean [1]: 15624.5 ng·h/mL | AUC0-∞, Mean [1]: 19922.02 ng·h/mL | Cmax, Mean [1]: 1068.9 ng/mL | Tmax, Mean [1]: 3.8 h | t1/2, Mean [1]: 27.446 h | inhibition at 5 µM (Vaccinia virus (NYCBH); 72 h, read-out: inhibition of vaccinia virus-induced CPE): > 50% | pEC50 (Vaccinia virus (NYCBH); read-out: EC50 in the CPE assay): 7.30 | Cmax (clinical; Median): 1170 ng/mL | Tmax (clinical; Median): 3.5 h | half-life (clinical; t1/2, Median): 25.1 h | inhibition of replication of unrelated virus [2]: do not inhibit | inhibition of replication of unrelated virus (cytomegalovirus): do not inhibit | inhibition of replication of unrelated virus [3]: do not inhibit

O=C(NN1C(=O)C2C3C=CC(C4CC34)C2C1=O)c1ccc(C(F)(F)F)cc1 (single isomer, unassigned) [Form V, 4-trifluoromethyl-N-(3,3a,4,4a,5,5a,6,6a-octahydro-1,3-dioxo-4,6-ethenocycloprop[f]isoindol-2(1H)-yl)-benzamide]
Cmax, Median [1]: 1180 ng/mL | Tmax, Median [1]: 4 h | t1/2, Median [1]: 16.647 h | AUC (clinical; AUC0-τ, Mean): 20100 ng·h/mL | AUC(0-inf) (clinical; AUC0-∞, Mean): 22000 ng·h/mL | Cmax (clinical; Mean): 1230 ng/mL | Tmax (clinical; Mean): 3.8 h | half-life (clinical; t1/2, Mean): 29.2 h

O=C(NN1C(=O)C2C3C=CC(C4CC34)C2C1=O)c1ccc(C(F)(F)F)cc1 (stereo not shown) [ST-246, 4-trifluoromethyl-N-(3,3a,4,4a,5,5a,6,6a-octahydro-1,3-dioxo-4,6-ethenocycloprop[f]isoindol-2(1H)-yl)-benzamide]
pEC50 (camelpox): ≥ 7.15 | preventing or reducing mortality (ECTV, VV, or CV): highly effective in preventing or reducing mortality | toxicity in animal models (ECTV, VV, or CV): nontoxic | pEC50 (ectromelia virus (ECTV)): ≥ 7.15 | pEC50 (variola viruses): ≥ 7.15 | pEC50 (cowpox virus (CV)): ≥ 7.15 | tail lesions (VV): significantly reduced | pEC50 (monkeypox): ≥ 7.15 | pEC50 (vaccinia virus (VV)): ≥ 7.15
